According to patent US20040044067A1, “Toralactone and its derivation and the use of decreasing blood-fat and losing weight” (priority 2000, published 2004):

Tested on: hyperlipemia guinea pigs
Experiment: Effect on serum cholesterol and triglyceride in hyperlipemia guinea pigs (high-cholesterol feed, 30 days)
Type: in vivo, guinea pig
Details: for Serum TC (total cholesterol) / Serum TG (triglyceride): guinea pigs on high-cholesterol feed (basic feed+0.5% cholesterol) plus 10 mg/(kg·d) compound for 30 days, serum taken 24 h after last feeding, n=10
Description: The test was performed as described in Fuhua, Wang, Chinese Journal of Surgery, 1991; 8 (1): 17. 60 healthy guinea pigs of 200-500 g were randomly divided into 6 groups based on body weight and sex. Each group contained 10 animals, including both male and female. The guinea pigs of Group 1 were fed with high-cholesterol feed (basic feed+0.5% cholesterol) at an amount of 20 g per 100 g body weight per day. Groups 2, 3, 4, 5 were test groups, the guinea pigs of which were fed with high-cholesterol feed plus 10 mg/(kg·d) of Compound (1), (2), (3) or (4) for 30 days. The guinea pigs of Group 6 were fed with basic feed only. The feeding for each group continued for 30 days, and 24 hours after the last feeding, the guinea pigs were anaesthetized i.p. with 1 g/kg Urethane. Blood was taken from heart, and serum was separated. The level of serum total cholesterol (TC) and triglyceride (TG) were determined.
In the above procedure, cholesterol was determinated by enzymatic analysis, using enzymatic agent assay kit from BGH Company (Taiwan). All the operations were carried out according to the manufacturer's instruction, and the determination was accomplished in ENCOREII automatic biochemistry analyser.

| Substance | Serum TC (total cholesterol) [mmol/L] | Serum TG (triglyceride) [mmol/L] | Effect on the level of serum TC and TG (in words) (10 mg/(kg·d)×30d, hyperlipemia guinea pigs) |
| --- | --- | --- | --- |
| neotoralactone [Compound (1)] | 4.21 ± 1.9 | 1.21 ± 0.3 |  |
| neotoralactone-6-O-β-D-galactoside [Compound (4)] | 3.71 ± 1.1 | 1.22 ± 0.2 |  |
| neotoralactone-8-O-β-D-glucoside [Compound (3)] | 3.81 ± 0.9 | 1.18 ± 0.2 |  |
| neotoralactone-6-O-β-D-glucoside [Compound (2)] |  |  | most prominent |
